Patent publication US20220401514A1, “ANTIMICROBIAL, BACTERIOPHAGE-DERIVED POLYPEPTIDES AND THEIR USE AGAINST GRAM-NEGATIVE AND ACID-FAST BACTERIA” (CONTRAFECT CORPORATION, priority 2019, published 2022)
Read-outs that look alike come from different tables or passages of the source.

What was measured:
[1] = system: P. aeruginosa strain CFS-1292; assay: MIC in presence of mouse, rat, rabbit and human serum ([…] each); assay type: cell-based, Pseudomonas aeruginosa; conditions: P. aeruginosa CFS-1292
Protocol: The activity of several Chp peptides against P. aeruginosa strain CFS-1292 in animal serum was evaluated. […] Rat, mouse, and rabbit serum were all obtained from pooled gender samples.

[2] = system: Klebsiella pneumoniae; assay: microbe, parasite or virus in culture; assay type: cell-based; conditions: CAA without human serum
[3] = system: P. aeruginosa strain CFS-1292; assay: Checkerboard assay (FICI) with antibiotics, P. aeruginosa; assay type: cell-based, Pseudomonas aeruginosa; conditions: for FICI: CAA + […] human serum
How it was run: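 Antibiotic diluted 2-fold along one plate axis against Chp peptide; bacteria added at 1×10^5 […] in CAA, optionally with human serum or pulmonary surfactant.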

[4] = system: M. smegmatis; assay: 45 hr MIC against M. smegmatis (NTM), Mueller Hinton broth; assay type: cell-based, Mycobacterium smegmatis
[5] = system: M. fortuitum; assay: 45 hr MIC against M. fortuitum (NTM); assay type: cell-based, Mycobacterium fortuitum; conditions: M. fortuitum subsp. Fortuitum da Costa Cruz. ATCC 6841
[6] = system: M. intracellulare; assay: 45 hr MIC against M. intracellulare (NTM); assay type: cell-based, Mycobacterium intracellulare; conditions: M. intracellulare (Cuttino and McCabe) Runyon ATCC 13950
[7] = system: Acinetobacter baumannii; assay: microbe, parasite or virus in culture; assay type: cell-based
[8] = system: Mycobacterium tuberculosis strains
Protocol: MIC values for various Chp peptides were determined using the CLSI method for broth microdilution in 96-well microtiter format.
Next, MIC values for various Chp peptides were determined using the CLSI method above for broth microdilution in 96-well microtiter format for two different Mycobacterium tuberculosis strains. The MIC was determined as explained above for the NTM strains.

[9] = system: carbapenem-resistant bacterial strains; assay: organism not typed; assay type: cell-based
Description: Determination of Minimal Inhibitory Concentrations (MIC).

[10] = system: P. aeruginosa strain CFS-1292; assay: MIC in presence and absence of NaCl (140 mM); assay type: cell-based, Pseudomonas aeruginosa
Protocol: Certain Chp peptides were evaluated over a range of physiological NaCl levels and pH values, and were further evaluated for activity in the presence of various divalent cations.

[11] = system: M. scrofulaceum; assay: 45 hr MIC against M. scrofulaceum (NTM); assay type: cell-based, Mycobacterium scrofulaceum; conditions: M. scrofulaceum Prissick and Masson ATCC 19981
[12] = system: M. avium; assay: 45 hr MIC against M. avium (NTM); assay type: cell-based, Mycobacterium avium; conditions: M. avium Chester ATCC 700898
[13] = system: P. aeruginosa strain CFS-1292; assay: MIC in presence and absence of Survanta pulmonary surfactant; assay type: cell-based, Pseudomonas aeruginosa
[14] = system: P. aeruginosa strain CFS-1292; assay: MIC in presence of divalent cations (calcium chloride, magnesium sulfate); assay type: cell-based, Pseudomonas aeruginosa
Protocol: Next, Chp peptides were evaluated in the presence of different divalent cations. […]; (2) in the presence of 2 mM calcium chloride alone; (3) in the presence of 1 mM magnesium sulfate alone; and (4) in the presence of both 2 mM calcium chloride and 1 mM magnesium sulfate. […]

[15] = system: carbapenem-resistant P. aeruginosa clinical isolate CFS-1292; assay: MIC by modified CLSI broth microdilution against P. aeruginosa CFS-1292 (CAA, CAA + human serum); assay type: cell-based, Pseudomonas aeruginosa
[16] = A. baumannii isolates (n per peptide in table)

MARRYRLSRRRSRRLFSRTALRMHRRNRLRRIMRGGIRF [Chp4]
MIC BALB/C Mouse Serum ([1]; BALB/C mouse serum […]): 32 µg/mL
MIC CAA ([1]; CAA): 0.5 µg/mL
MIC New Zealand White Rabbit Serum ([1]; New Zealand White rabbit serum […]): 2 µg/mL
MIC Sprague Dawley Rat Serum ([1]; Sprague Dawley rat serum […]): 2 µg/mL
MIC Human Serum ([1]; human serum […]): 0.5 µg/mL
MIC ([2]; Klebsiella pneumoniae (ATCC 10031, MIC control strain), RSC 814): 4 µg/mL
MIC ([2]; Klebsiella pneumoniae (g2-3 HM35K), RSC 1138): 4 µg/mL
MIC ([2]; Klebsiella sp. (HM-44; colon, Crohn's disease), RSC 1139): 4 µg/mL
MIC ([2]; Klebsiella spp. (HM-223; gut of Crohn's disease patient), RSC 1131): 4 µg/mL
interaction between the Chp peptide and the antibiotic (FICI values) ([3]; P. aeruginosa CFS-1292, range of antibiotics): either synergy (i.e., ≤0.5) or strongly additive (i.e., >0.5-1)
FICI ([3]; combination with Amikacin): 0.500
FICI ([3]; combination with Azithromycin): 0.156
FICI ([3]; combination with Aztreonam): 0.375
FICI ([3]; combination with Ciprofloxacin): 0.375
FICI ([3]; combination with Colistin): 0.375
FICI ([3]; combination with Fosfomycin): 0.250
FICI ([3]; combination with Gentamicin): 0.250
FICI ([3]; combination with Imipenem): 0.375
FICI ([3]; combination with Piperacillin): 0.188
FICI ([3]; combination with Rifampicin): 0.750
FICI ([3]; combination with Tobramycin): 0.266
45 hr MIC ([4]; M. smegmatis MC^2 155, Run #1): 4 µg/mL
45 hr MIC ([4]; M. smegmatis MC^2 155, Run #2): 4 µg/mL
45 hr MIC [5]: 4 µg/mL
45 hr MIC [6]: 1 µg/mL
MIC50 [7, 16]: 0.5 µg/mL
MIC100 [7, 16]: 1 µg/mL
MIC Range [7, 16]: 0.25 to 1 µg/mL
MIC ([7]; Acinetobacter baumannii (clinical isolate HSS), RSC 30, CAA without human serum): 4 µg/mL
MIC ([7]; Acinetobacter baumannii (clinical isolate HSS), RSC 32, CAA without human serum): 4 µg/mL
MIC ([7]; Acinetobacter baumannii ATCC BAA 747, CAA supplemented with human serum): 0.125 µg/mL
MIC ([8]; Mycobacterium tuberculosis (Zopf) Lehmann and Neumann ATCC 25177): 16 µg/mL
MIC ([8]; Mycobacterium tuberculosis (Zopf) Lehmann and Neumann ATCC 35817): 8 µg/mL
MIC ([9]; carbapenem-resistant isolate PA19): 0.5 µg/mL
MIC ([9]; carbapenem-resistant isolate PA20): 1 µg/mL
MIC ([9]; carbapenem-resistant isolate PA21): 1 µg/mL
MIC ([9]; carbapenem-resistant isolate PA22): 1 µg/mL
MIC ([9]; carbapenem-resistant isolate PA23): 1 µg/mL
MIC ([9]; carbapenem-resistant isolate PA24): 1 µg/mL
MIC ([9]; carbapenem-resistant isolate WLC-452): 0.5 µg/mL
Fold change in MIC ([10]; CAA + 140 mM NaCl versus CAA without added NaCl): 1
MIC, CAA + 140 mM NaCl ([10]; CAA + 140 mM NaCl, P. aeruginosa CFS-1292): 0.5 µg/mL
MIC, CAA (no added NaCl) ([10]; CAA, no added NaCl, P. aeruginosa CFS-1292): 0.5 µg/mL
45 hr MIC [11]: 2 µg/mL
45 hr MIC [12]: 1 µg/mL
MIC ([13]; CAA media + 0.19 mg/mL Survanta): 0.5 µg/mL
MIC ([13]; CAA media + […] Survanta): 0.5 µg/mL
MIC ([13]; CAA media alone): 0.5 µg/mL
MIC ([14]; CAA media + 1 mM MgSO4): 0.5 µg/mL
MIC ([14]; CAA media + 2 mM CaCl2): 1 µg/mL
MIC ([14]; CAA media + + 1 mM MgSO4): 0.125 µg/mL
MIC ([14]; CAA media alone): 0.5 µg/mL
MIC (μg/mL) against CFS-1292 in 100% CAA (1st run/2nd run) ([15]; 100% CAA, 1st run or single value): 0.5 µg/mL
MIC (μg/mL) against CFS-1292 in CAA + […] human serum ([15]; CAA + […] human serum): 0.5 µg/mL
